{
  "source": "paper PMC2607543",
  "about": "“Peptides Derived from HIV-1 Integrase that Bind Rev Stimulate Viral Genome Integration” (PLoS ONE, 2009)",
  "key": {"HIV-1 in Sup-T1 cells": {"system": "HIV-1 in Sup-T1 cells", "test": "Time-of-addition assay, viral p24 in Sup-T1 cells", "format": "cell-based", "conditions": "MOI 2; dextran sulfate 20 µM, AZT 2 µM, LEDGF 402–411 12.5 µM; p24 at 48 h PI; Fig 8C", "experimental": "Figure 8 Virus-cell adsorption and viral reverse-transcriptase activity are not affected by the INr peptides. (A and B) Estimation of viral DNA in virus-infected cells: Sup-T1 cells were incubated with the indicated peptides or with AZT for 2 h and then were infected with HIV. Following another 6 h incubation, the viral Gag (A) or Nef (B) DNA sequences were amplified using specific primers. The reaction was terminated after 30 cycles. Lanes: 1) INr-1 (12.5 µM); 2) INr-2 (12.5 µM); 3) AZT (2 µM); 4) untreated cells; 5) uninfected cells. […] (C) Influence of the time of addition on P24 production: Sup-T1 cells were infected with HIV-1 at a MOI of 2, and the indicated constituents were added at different time points PI (0, 2, 4,…, 24 h). Viral p24 was determined at 48 h PI. No addition (Blue X); no virus (Gray diamond); dextran sulfate 20 µM (Brown asterisk); AZT 2 µM (Red empty circle); INr-1 12.5 µM (Green diamond); INr-2 12.5 µM (Magenta square); LEDGF 402–411 (Black full circle).\nSup T1 cells were infected with wild-type HIV-1 at a MOI of 2, and the test compounds were added at different time points after infection (0, 2, 4,…, 24 h). Viral p24 production was determined at 48 h PI [59]. Dextran sulfate was tested at 20 µM, AZT at 2 µM, LEDGF 402-411, INr-1 and INr-2 at 12.5 µM."}, "HIV-1 IN": {"system": "HIV-1 IN", "conditions": "ref [36]; cited from earlier work", "experimental": "Dextran sulfate, various peptides and AZT were added at different times to HIV-1 infected Sup-T1 cells and the amount of viral P24 protein—reflecting efficiency of virus infection—was estimated at 48 h PI."}, "[1]": {"system": "viral Gag or Nef DNA sequences", "format": "cell-based, HIV-1", "conditions": "INr 12.5 µM or AZT 2 µM, 2 h before infection, 6 h after; Gag (A) or Nef (B) PCR; Fig 8A and B"}, "HeLa TZM-bl cells": {"system": "HeLa TZM-bl cells", "test": "MTT cell toxicity assay, HeLa TZM-bl", "format": "cell-based", "conditions": "up to about 62 µM, Fig 4B", "experimental": "(§1) Figure 4 Cell penetration and toxicity of INr peptides. (A) Fluorescein-labeled INr-1, INr-2, and IN-3 (a known nonpermeable peptide) each at 10 µM, were incubated for 2 h at 37°C with HeLa cells. The cells were then washed three times with PBS and visualized by confocal microscopy. (B) Cell toxicity was determined by MTT assay in HeLa TZM-bl cells. (C) Same as (B) but in H9 lymphocytes. Experimental conditions are described in Materials and Methods.\n(§2) Following incubation of the cells with the indicated peptides, the medium was removed and the cells were further incubated in Earl's solution containing 0.3 mg/ml MTT for 1 h. Subsequently, the solution was removed and the cells were dissolved in 100 µl DMSO for 10 min at room temperature. The DMSO-solubilized cells were transferred to a 96-well ELISA plate and OD values were monitored at a wavelength of 570 nm."}, "H9 lymphocytes": {"system": "H9 lymphocytes", "test": "MTT cell toxicity assay, H9", "format": "cell-based", "conditions": "up to about 62 µM, Fig 4C", "experimental": "as §1, §2"}, "HIV-1 infected cells": {"system": "HIV-1 infected cells", "test": "Cell death and syncytia formation in infected, INr-treated cells", "format": "cell-based", "conditions": "combination of the peptide and the virus; not shown"}},
  "note": "Where no end group is shown, it is not given here.",
  "data": [
    {"compound": "LEDGF 402–411: LEDGF-derived peptide (aa 402–411) which has been shown to block viral IN enzymatic activity (KIRRFKVSQV; UniProt O75475 402-411, looked up, fragment)", "values": [
      {"measurement": "Time of addition post infection up to which infection is inhibited", "setting": "HIV-1 in Sup-T1 cells", "value": "about 18 h"},
      {"measurement": "Inhibition of IN enzymatic activity by LEDGF-derived peptides", "setting": "HIV-1 IN", "value": "block viral IN enzymatic activity in vitro and in vivo"}
    ]},
    {"compound": "dextran sulfate", "values": [
      {"measurement": "Time of addition post infection up to which infection is inhibited", "setting": "HIV-1 in Sup-T1 cells", "value": "≤ 4", "unit": "h"}
    ]},
    {"compound": "Cc1cn([C@H]2C[C@H](N=[N+]=[N-])[C@@H](CO)O2)c(=O)[nH]c1=O", "note": "[AZT, azidothymidine]", "values": [
      {"measurement": "Effect on reverse transcription / reverse-transcribed viral DNA", "setting": "[1]", "value": "reverse-transcribed viral DNA is absent"},
      {"measurement": "Time of addition post infection up to which infection is inhibited", "setting": "HIV-1 in Sup-T1 cells", "value": "≤ 10", "unit": "h"}
    ]},
    {"compound": "WGSNFTSTTVKA [INr-2]", "values": [
      {"measurement": "Toxic effect, HeLa TZM-bl cells", "setting": "HeLa TZM-bl cells", "value": "No toxic effect"},
      {"measurement": "Toxic effect, H9 T-cell lymphocytes", "setting": "H9 lymphocytes", "value": "No toxic effect"},
      {"measurement": "Cell death and syncytia formation with peptide and virus", "setting": "HIV-1 infected cells", "value": "increase in cell death and syncytia formation"}
    ]},
    {"compound": "CC[C@H](C)[C@H](NC(=O)[C@H](CCCCN)NC(=O)CNC(=O)[C@H](CCC(=O)O)NC(=O)[C@H](CC(C)C)NC(=O)[C@H](Cc1c[nH]cn1)NC(=O)[C@@H](NC(=O)[C@@H](N)Cc1c[nH]c2ccccc12)[C@@H](C)O)C(=O)N[C@H](C(=O)N[C@@H](CC(C)C)C(=O)N[C@H](C(=O)N[C@@H](C)C(=O)N[C@H](C(=O)N[C@@H](Cc1c[nH]cn1)C(=O)N[C@H](C(=O)N[C@@H](C)C(=O)O)C(C)C)C(C)C)C(C)C)[C@@H](C)CC", "note": "[INr-1]", "values": [
      {"measurement": "Toxic effect, HeLa TZM-bl cells", "setting": "HeLa TZM-bl cells", "value": "No toxic effect"},
      {"measurement": "Toxic effect, H9 T-cell lymphocytes", "setting": "H9 lymphocytes", "value": "No toxic effect"}
    ]}
  ]
}
